Data from ChEMBL document CHEMBL3600332, “Novel dammarane-type triterpenes isolated from hydrolyzate of total Gynostemma pentaphyllum saponins” (Bioorg Med Chem Lett, 2015).
Calls of active or inactive are those of the source. The calls are words filed in the database; no cut-off is given here.

Columns and labels:
[1] = tested on: HT-29; test: Cytotoxicity against human HT-29 cells after 48 hrs by MTT assay; assay type: functional, cell-based; conditions: HT-29, 48 h
[2] = tested on: HCT-116; test: Cytotoxicity against human HCT116 cells after 48 hrs by MTT assay; assay type: functional, cell-based; conditions: HCT-116, 48 h
[3] = tested on: MCF7; test: Cytotoxicity against human MCF7 cells after 48 hrs by MTT assay; assay type: functional, cell-based; conditions: for IC50: MCF7, 48 h
[4] = Cytotoxicity against human MCF10A cells after 48 hrs by MTT assay; assay type: cell-based; conditions: MCF-10A
[5] = Cytotoxicity against human BGC823 cells after 48 hrs by MTT assay; assay type: functional, cell-based; conditions: BGC-823, 48 h
[6] = tested on: MCF7; test: Cell cycle arrest in human MCF7 cells assessed as accumulation at M1 phase at 20 uM after 12 to 36 hrs using propidium-iodide staining by flow-cytometry (reference value: 0.95%); assay type: functional
[7] = tested on: MCF7; test: Cytotoxicity against human MCF7 cells at 1 uM by MTT assay; assay type: functional, cell-based; conditions: TDE = time-dependent effect
[8] = tested on: MCF7; test: Cell cycle arrest in human MCF7 cells assessed as accumulation at subG1 phase at 20 uM after 12 to 36 hrs using propidium-iodide staining by flow-cytometry (reference value: 0.41%); assay type: functional
[9] = tested on: MCF7; test: Induction of apoptosis in human MCF7 cells assessed as bubble-shaped regions at 20 uM after 36 hrs by phase-contrast microscopic analysis; assay type: functional, cell-based
[10] = tested on: MCF7; test: Induction of apoptosis in human MCF7 cells assessed as condensed chromatin in nucleus at 20 uM after 36 hrs by DAPI staining; assay type: functional, cell-based

Compound | IC50 [1] [µM] | IC50 [2] [µM] | IC50 [3] [µM] | IC50 [4] [µM] | IC50 [5] [µM] | Activity [6] [%] | Activity [7] | Activity [8] [%] | Activity [3] | Activity [9] | Activity [10]
CC(C)(O)CC/C=C(/CO[C@@H]1O[C@H](CO)[C@@H](O)[C@H](O)[C@H]1O)[C@H]1CC[C@]2(C)[C@@H]1CC[C@@H]1[C@@]3(C)CC[C@H](O)C(C)(C)[C@@H]3CC[C@]12C | 33.6 | 67.3 | 52.4 | > 100 | > 100 | – | – | – | – | – | –
CC(C)(O)CC/C=C(/CO[C@@H]1O[C@H](CO)[C@@H](O)[C@H](O)[C@H]1O)[C@H]1CC[C@]2(C)[C@@H]1CC[C@@H]1C3=C(CC[C@]12C)C(C)(C)[C@@H]1CC[C@H]3O1 | 26.1 | > 100 | 14.3 | > 100 | > 100 | – | – | – | – | – | –
CC(C)(O)CCC[C@@H](CO[C@@H]1O[C@H](CO)[C@@H](O)[C@H](O)[C@H]1O)[C@H]1CC[C@]2(C)[C@@H]1CC[C@@H]1C3=C(CC[C@]12C)C(C)(C)[C@@H]1CC[C@H]3O1 | 32 | > 100 | 21.2 | > 100 | > 100 | – | – | – | – | – | –
CC(C)(O)CC/C=C(/CO[C@@H]1O[C@H](CO)[C@@H](O)[C@H](O)[C@H]1O)[C@@H]1CC[C@]2(C)[C@@H]1CC[C@@H]1[C@@]3(C)CC[C@H](O)C(C)(C)[C@@H]3CC[C@]12C | 30.5 | 66.5 | 46.3 | > 100 | > 100 | – | – | – | – | – | –
COC(C)(C)CCC[C@@](O)(CO[C@@H]1O[C@H](CO)[C@@H](O)[C@H](O)[C@H]1O)[C@H]1CC[C@]2(C)[C@@H]1CC[C@@H]1C3=C(CC[C@]12C)C(C)(C)[C@@H]1CC[C@H]3O1 | 28.1 | 55.7 | 6.85 | > 100 | > 100 | 74.59 | tde | 17.09 | Dose-dependent effect | Active | Active
